Laboratory results published in ChEMBL document CHEMBL1201862, “PubChem BioAssay data set” (2004).
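Tested at 5 concentrations; 48 h exposure; 96-well plates; endpoints linearly interpolated, else capped at highest concentration. GI50 = concentration required for 50% inhibition of growth.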 Active and inactive are the calls of the source. Cut-off read from the data, not from the text of the source: active = GI50 up to about 1.1 µM and inactive = higher.

Columns and labels:
Assay in all cases: DTP human tumour cell line panel, 48 h
SK-MEL-2 = test system: SK-MEL-2
HCT-116 = test system: HCT-116
NCI-H226 = test system: NCI-H226
SN12C = test system: SN12C
HL-60 = test system: HL-60
SK-MEL-28 = test system: SK-MEL-28
MOLT-4 = test system: MOLT-4
UO-31 = test system: UO-31
CCRF-CEM = test system: CCRF-CEM
NCI-H460 = test system: NCI-H460
HOP-62 = test system: HOP-62
DLD-1 = test system: DLD-1
LOX IMVI = test system: LOX IMVI
NCI-H522 = test system: NCI-H522
UACC-257 = test system: UACC-257
SW-620 = test system: SW-620
HT-29 = test system: HT-29
KM12 = test system: KM12
OVCAR-5 = test system: OVCAR-5
OVCAR-3 = test system: OVCAR-3
IGROV-1 = test system: IGROV-1
RXF 393 = test system: RXF 393
K562 = test system: K562
CAKI-1 = test system: CAKI-1
DMS-114 = test system: DMS-114
ACHN = test system: ACHN
U-251 = test system: U-251
SK-MEL-5 = test system: SK-MEL-5
RPMI-8226 = test system: RPMI-8226
XF498 = test system: XF498
SF-539 = test system: SF-539
M19-MEL = test system: M19-MEL
EKVX = test system: EKVX
SNB-78 = test system: SNB-78
DMS-273 = test system: DMS-273
UACC-62 = test system: UACC-62
LXFL 529 = test system: LXFL 529
SF-268 = test system: SF-268
A498 = test system: A498
HCT-15 = test system: HCT-15
KM-20L2 = test system: KM-20L2
SNB-75 = test system: SNB-75
NCI-H23 = test system: NCI-H23
SK-OV-3 = test system: SK-OV-3
A549 = test system: A549
786-0 = test system: 786-0
M14 = test system: M14
OVCAR-8 = test system: OVCAR-8
HCC 2998 = test system: HCC 2998
TK-10 = test system: TK-10
Malme-3M = test system: Malme-3M
SF-295 = test system: SF-295
SNB-19 = test system: SNB-19
COLO 205 = test system: COLO 205
SR = test system: SR
OVCAR-4 = test system: OVCAR-4
HOP-18 = test system: HOP-18
HOP-92 = test system: HOP-92

Measured: GI50

Cc1cc(N(CCC#N)CCC#N)ccc1/C=C1N=C(/C=C/c2ccccc2)OC(=O)N\1
> 100 µM: HCT-15
inactive: SK-MEL-2 > 100 µM | HCT-116 > 100 µM | NCI-H226 33 µM | SN12C > 100 µM | HL-60 > 100 µM | SK-MEL-28 > 100 µM | MOLT-4 > 100 µM | UO-31 > 100 µM | CCRF-CEM > 100 µM | NCI-H460 > 100 µM | HOP-62 > 100 µM | DLD-1 > 100 µM | LOX IMVI > 100 µM | NCI-H522 > 100 µM | UACC-257 > 100 µM | SW-620 > 100 µM | HT-29 > 100 µM | KM12 > 100 µM | OVCAR-5 > 100 µM | OVCAR-3 81.5 µM | IGROV-1 > 100 µM | RXF 393 91.8 µM | K562 > 100 µM | CAKI-1 > 100 µM | DMS-114 > 100 µM | ACHN > 100 µM | U-251 61.5 µM | SK-MEL-5 > 100 µM | RPMI-8226 > 100 µM | XF498 > 100 µM | SF-539 > 100 µM | M19-MEL > 100 µM | EKVX > 100 µM | SNB-78 43.3 µM | DMS-273 > 100 µM | UACC-62 > 100 µM | LXFL 529 > 100 µM | SF-268 > 100 µM | A498 > 100 µM | KM-20L2 > 100 µM | SNB-75 31.3 µM | NCI-H23 > 100 µM | SK-OV-3 92.3 µM | A549 > 100 µM | 786-0 37.8 µM | M14 > 100 µM | OVCAR-8 > 100 µM | HCC 2998 > 100 µM | TK-10 > 100 µM | Malme-3M > 100 µM | SF-295 7.41 µM | SNB-19 > 100 µM | COLO 205 > 100 µM

COc1ccc(OC)c2c3c(ccc12)C(c1ccccc1)OC3=O (stereo unspecified)
61 µM: HCT-15
inactive: SK-MEL-2 55 µM | HCT-116 72.9 µM | NCI-H226 > 100 µM | SN12C 94.2 µM | HL-60 33.7 µM | SK-MEL-28 52.4 µM | MOLT-4 32.9 µM | UO-31 36.8 µM | CCRF-CEM 64 µM | NCI-H460 47.2 µM | HOP-62 73.5 µM | DLD-1 63.5 µM | LOX IMVI 56.5 µM | NCI-H522 36.5 µM | UACC-257 37.7 µM | SR 45 µM | SW-620 85.1 µM | HT-29 58.3 µM | KM12 56.5 µM | OVCAR-4 70.1 µM | OVCAR-5 > 100 µM | OVCAR-3 25.8 µM | IGROV-1 > 100 µM | RXF 393 39.9 µM | K562 47.2 µM | CAKI-1 55.1 µM | DMS-114 51.8 µM | ACHN 55.7 µM | U-251 60.3 µM | SK-MEL-5 47.5 µM | RPMI-8226 24.9 µM | M19-MEL 45.7 µM | EKVX > 100 µM | SNB-78 12.8 µM | DMS-273 31.9 µM | UACC-62 > 100 µM | LXFL 529 43.8 µM | SF-268 > 100 µM | A498 81.7 µM | KM-20L2 > 100 µM | SNB-75 38.7 µM | NCI-H23 17.7 µM | SK-OV-3 > 100 µM | A549 85.5 µM | 786-0 60.7 µM | M14 > 100 µM | OVCAR-8 39.4 µM | HCC 2998 > 100 µM | TK-10 60.4 µM | Malme-3M 59 µM | SF-295 52.6 µM | SNB-19 > 100 µM | HOP-18 52.1 µM | COLO 205 54 µM

Cn1ccc2c(C(=O)c3ccccc3)cccc2c1=O
25.8 µM: HCT-15
inactive: SK-MEL-2 57.7 µM | HCT-116 36.7 µM | SN12C 59.2 µM | HL-60 24.9 µM | HOP-92 49.2 µM | SK-MEL-28 60.5 µM | MOLT-4 38 µM | CCRF-CEM 32.7 µM | NCI-H460 39.8 µM | HOP-62 31 µM | DLD-1 44.6 µM | LOX IMVI 54.3 µM | NCI-H522 21.3 µM | UACC-257 > 100 µM | SR 56.1 µM | SW-620 37.9 µM | HT-29 44.2 µM | KM12 42.9 µM | OVCAR-4 95.5 µM | OVCAR-3 36.8 µM | IGROV-1 > 100 µM | RXF 393 47.5 µM | CAKI-1 68.2 µM | DMS-114 38.5 µM | ACHN 85.9 µM | SK-MEL-5 28.8 µM | RPMI-8226 33.2 µM | XF498 47.1 µM | SF-539 29.6 µM | M19-MEL 74 µM | EKVX > 100 µM | DMS-273 34.1 µM | UACC-62 31.6 µM | LXFL 529 67.9 µM | SF-268 97.7 µM | SNB-75 23.4 µM | SK-OV-3 70.8 µM | A549 57.4 µM | 786-0 39.3 µM | M14 36.1 µM | OVCAR-8 56 µM | HCC 2998 89.5 µM | TK-10 > 100 µM | Malme-3M 45.4 µM | SF-295 20.7 µM | COLO 205 44.7 µM
